Eleven compounds from PubChem BioAssay (NCI) can be followed below.

Some test systems named below: A498 renal; HOP-92 NSCLC; LOX IMVI melanoma; MALME-3M melanoma; MCF7 breast; NCI-H226 lung; OVCAR-5 ovarian; SF-539 CNS; SK-MEL-2 melanoma; SR leukemia.
Test in all cases: NCI tumour cell line growth inhibition, 48 h

Molecules are shown by their SMILES. Values joined by “and” are separate entries in the source; they are usually repeats but may differ in a detail not shown here. Equal entries are not always repeated.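 In this assay, cells in 96-well plates receive the compound at five concentrations for 48 hours. Endpoints are linearly interpolated between the surrounding concentrations. Here, GI50 denotes the concentration required for 50% inhibition of growth. TGI marks complete inhibition of growth.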

Take `CC(C)(C)CC(C)(C)c1ccc(O)c(Cc2ccc(Cl)cc2Cl)c1`: the GI50 in the assay with A498 renal is 1.33 µM; with HOP-92 NSCLC it was 1.39 µM; in the assay on LOX IMVI melanoma, 1.53 µM; in the assay with MALME-3M melanoma, 1.68 µM; in the assay on MCF7 breast, 1.52 µM; in the assay with NCI-H226 lung, 1.53 µM. Moreover, the GI50 is 1.68 µM with OVCAR-5 ovarian, 1.84 µM with SF-539 CNS, 1.44 µM in the assay on SK-MEL-2 melanoma and 1.79 µM with SR leukemia. In addition, the TGI in the assay with A498 renal was determined as 2.61 µM; in the assay on HOP-92 NSCLC, 2.76 µM; in the assay on LOX IMVI melanoma, 2.86 µM; in the assay with MALME-3M melanoma, 3.24 µM; in the assay on MCF7 breast it was 2.85 µM; in the assay with NCI-H226 lung, 2.87 µM. The TGI with OVCAR-5 ovarian is 3.08 µM; with SF-539 CNS, 3.36 µM; in the assay on SK-MEL-2 melanoma, 2.95 µM; in the assay with SR leukemia, 4.22 µM.

In the case of `O=C(c1ccc(C(F)(F)F)c(Cl)c1)N(Cc1ccc(Cl)cc1)c1ccc(-c2cc(C(F)(F)F)[nH]n2)c(O)c1`, the GI50 in the assay on A498 renal was 1.04 µM; in the assay on HOP-92 NSCLC, 0.629 µM; in the assay with LOX IMVI melanoma, 0.819 µM; in the assay with MALME-3M melanoma, 0.941 µM; in the assay with MCF7 breast, 1.12 µM; with NCI-H226 lung, 1.08 µM. The GI50 with OVCAR-5 ovarian was 1.07 µM; in the assay with SF-539 CNS it was 0.994 µM; in the assay on SK-MEL-2 melanoma, 1.16 µM; with SR leukemia it was 0.983 µM. In addition, the TGI in the assay on A498 renal came to 2.66 µM; in the assay with HOP-92 NSCLC, 2.14 µM; with LOX IMVI melanoma, 1.5 µM; in the assay with MALME-3M melanoma, 2.36 µM; with MCF7 breast it was 3.85 µM; in the assay on NCI-H226 lung, 2.94 µM. The TGI in the assay with OVCAR-5 ovarian came out at 4.26 µM; in the assay with SF-539 CNS it was 2.09 µM; in the assay on SK-MEL-2 melanoma, 3.13 µM; in the assay with SR leukemia, 2.87 µM.

Take `CC(C)(C)c1cc(NC(=O)Nc2ccc(-c3cn4c(n3)sc3cc(OCCN5CCOCC5)ccc34)cc2)no1`: the GI50 was 13.9 µM and 2.13 µM and > 10 µM in the assay with A498 renal; 3.25 µM and 0.398 µM and 1.59 µM in the assay on HOP-92 NSCLC; 5.86 µM and 0.928 µM and 5.07 µM with LOX IMVI melanoma; 2.62 µM and 1.59 µM and 6.17 µM in the assay with MALME-3M melanoma; 2.04 µM and 0.357 µM and 1.41 µM in the assay with MCF7 breast; 3.38 µM and 0.921 µM and 4.29 µM in the assay with NCI-H226 lung. Moreover, the GI50 with OVCAR-5 ovarian is 21.7 µM and 9.53 µM and > 10 µM; in the assay with SF-539 CNS, 0.698 µM and 0.303 µM and 0.623 µM; in the assay with SK-MEL-2 melanoma it was 6.73 µM and 2.78 µM and > 10 µM. The TGI in the assay on A498 renal was 28.4 µM and 11 µM and > 10 µM; with HOP-92 NSCLC, 14.8 µM and 5.01 µM and > 10 µM; in the assay on LOX IMVI melanoma it was 30.1 µM and 8.21 µM and > 10 µM; in the assay with MALME-3M melanoma, 14.7 µM and 13.3 µM and > 10 µM; in the assay with MCF7 breast, 23.3 µM and 13.3 µM and > 10 µM; with NCI-H226 lung it was 18.6 µM and 5.24 µM and > 10 µM. The TGI in the assay on OVCAR-5 ovarian is 86.9 µM and 22.7 µM and > 10 µM; in the assay on SF-539 CNS, 15.4 µM and 1.65 µM and > 10 µM; in the assay on SK-MEL-2 melanoma, 20.3 µM and 16.2 µM and > 10 µM; in the assay with SR leukemia, > 47.9 µM and 11.2 µM and > 10 µM.

`CC(C)(c1ccccc1)c1cc(O)c(C(C)(C)c2ccccc2)cc1O`: the GI50 is 2.16 µM in the assay with A498 renal; 1.75 µM in the assay with HOP-92 NSCLC; 1.54 µM in the assay with LOX IMVI melanoma; 2.32 µM in the assay with MALME-3M melanoma; 2.1 µM with MCF7 breast; 1.09 µM with NCI-H226 lung. Also, the GI50 in the assay on OVCAR-5 ovarian was 2.63 µM; in the assay on SF-539 CNS, 2.73 µM; with SK-MEL-2 melanoma, 2.96 µM; with SR leukemia, 3 µM. Further, the TGI worked out at 10.1 µM in the assay on A498 renal; 6.66 µM in the assay with HOP-92 NSCLC; 3.82 µM with LOX IMVI melanoma; 12.3 µM with MALME-3M melanoma; 11.2 µM in the assay on MCF7 breast; 16 µM with NCI-H226 lung. Besides, the TGI was 8.58 µM in the assay on OVCAR-5 ovarian, 9.59 µM in the assay with SF-539 CNS, 13.9 µM with SK-MEL-2 melanoma and 9.86 µM in the assay with SR leukemia.

Take `CC(C)(C)c1cc(/C=N/NC(=O)c2ccccc2NC(=O)c2cccs2)c(O)c(C(C)(C)C)c1`: the GI50 in the assay on A498 renal was 10.4 µM; with HOP-92 NSCLC it was 4.44 µM; with LOX IMVI melanoma, 0.542 µM; with MALME-3M melanoma, 2.11 µM; in the assay on MCF7 breast, 0.485 µM; with NCI-H226 lung, 3 µM. Also, the GI50 with OVCAR-5 ovarian is 2.83 µM; in the assay on SF-539 CNS it was 1.93 µM; in the assay with SK-MEL-2 melanoma, 20.2 µM; with SR leukemia it was 0.786 µM. The TGI in the assay on A498 renal is 42.5 µM; in the assay with HOP-92 NSCLC, 80.5 µM; in the assay with LOX IMVI melanoma, more than 100 µM; in the assay on MALME-3M melanoma, 26.7 µM; in the assay with MCF7 breast, more than 100 µM; in the assay with NCI-H226 lung, more than 100 µM. Further, the TGI in the assay on OVCAR-5 ovarian was 62.4 µM; in the assay on SF-539 CNS, 22.1 µM; in the assay with SK-MEL-2 melanoma, more than 100 µM; in the assay with SR leukemia it was 3.6 µM.

For `COC(=O)c1cc2oc(/C=C3/SC(=S)N(N)C3=O)cc2n1Cc1ccccc1`, the GI50 in the assay on A498 renal is 2.16 µM; with HOP-92 NSCLC, 1.47 µM; with LOX IMVI melanoma, 2.61 µM; in the assay with MALME-3M melanoma, 1.91 µM; in the assay with MCF7 breast it was 1.5 µM; in the assay with NCI-H226 lung, 13.5 µM. Also, the GI50 in the assay with OVCAR-5 ovarian is 4.65 µM; in the assay on SF-539 CNS, 2.3 µM; in the assay on SK-MEL-2 melanoma, 6.82 µM; with SR leukemia, more than 21.4 µM. Further, the TGI with A498 renal was determined as 6.48 µM; with HOP-92 NSCLC, 12.8 µM; with LOX IMVI melanoma, 16 µM; in the assay on MALME-3M melanoma it was 17.7 µM; in the assay with MCF7 breast it was 6.93 µM; in the assay on NCI-H226 lung, 26.8 µM. The TGI is 20.7 µM with OVCAR-5 ovarian, 6.3 µM in the assay on SF-539 CNS, 18.7 µM in the assay on SK-MEL-2 melanoma and more than 100 µM in the assay with SR leukemia.

`COc1cc(N2C(=O)[C@H](c3ccccc3)C2c2ccc(SC)cc2)cc(OC)c1OC` (some centres undefined): the GI50 with A498 renal is 0.0232 µM; in the assay on HOP-92 NSCLC, 0.031 µM; in the assay on LOX IMVI melanoma it was 0.0352 µM; in the assay on MALME-3M melanoma, more than 100 µM; in the assay with MCF7 breast, 0.0352 µM; in the assay with NCI-H226 lung it was 0.0301 µM. For the same compound, the GI50 in the assay on OVCAR-5 ovarian is 0.0613 µM; in the assay with SF-539 CNS, 0.0255 µM; in the assay on SK-MEL-2 melanoma, 0.0489 µM; with SR leukemia it was 0.0411 µM. In addition, the TGI in the assay with A498 renal is 0.078 µM; with HOP-92 NSCLC, 16.5 µM; with LOX IMVI melanoma, more than 100 µM; in the assay with MALME-3M melanoma it was more than 100 µM; with MCF7 breast it was more than 100 µM; in the assay on NCI-H226 lung, more than 100 µM. Further, the TGI in the assay with OVCAR-5 ovarian was more than 100 µM; in the assay on SF-539 CNS, 0.0697 µM; in the assay with SK-MEL-2 melanoma, more than 100 µM; in the assay with SR leukemia, more than 100 µM.

Consider `NC(=S)N/N=C1\c2ccccc2-c2c(F)c(F)c(F)c(F)c21`, for which the GI50 in the assay with A498 renal is 16.5 µM; in the assay on HOP-92 NSCLC, 6.33 µM; with LOX IMVI melanoma, 2.34 µM; in the assay with MALME-3M melanoma, 7.54 µM; with MCF7 breast, 2.39 µM; in the assay with NCI-H226 lung it was 13.1 µM. For the same compound, the GI50 was 13.6 µM in the assay with OVCAR-5 ovarian, 5.39 µM with SF-539 CNS, 5.38 µM with SK-MEL-2 melanoma and 0.298 µM in the assay on SR leukemia. For the same compound, the TGI in the assay on A498 renal worked out at 55.7 µM; in the assay with HOP-92 NSCLC it was 19.9 µM; with LOX IMVI melanoma, 7.64 µM; in the assay on MALME-3M melanoma, 21.1 µM; with MCF7 breast it was 14.3 µM; in the assay with NCI-H226 lung, 28.9 µM. In addition, the TGI in the assay with OVCAR-5 ovarian was 30.5 µM; in the assay with SF-539 CNS, 12.8 µM; with SK-MEL-2 melanoma, 21.7 µM; in the assay with SR leukemia, 1.86 µM.

With `O=C(O)c1cc(=O)cc(C(=O)O)o1`, the GI50 in the assay on A498 renal, in the assay with HOP-92 NSCLC, in the assay with LOX IMVI melanoma, with MALME-3M melanoma, in the assay with MCF7 breast and in the assay on NCI-H226 lung was more than 100 µM in each case. In addition, the GI50 in the assay on OVCAR-5 ovarian, in the assay on SF-539 CNS, with SK-MEL-2 melanoma and with SR leukemia was more than 100 µM throughout. Besides, the TGI in the assay on A498 renal, in the assay with HOP-92 NSCLC, in the assay with LOX IMVI melanoma, in the assay with MALME-3M melanoma, in the assay with MCF7 breast and in the assay on NCI-H226 lung was more than 100 µM in each case. In addition, the TGI with OVCAR-5 ovarian, in the assay on SF-539 CNS, in the assay with SK-MEL-2 melanoma and in the assay with SR leukemia was more than 100 µM each time.

For the compound `O=C1CC(c2ccccc2)Cc2nc3ccc(Br)cc3cc21` (centres undefined), the GI50 with A498 renal is 0.0377 µM; in the assay on HOP-92 NSCLC, 0.45 µM; in the assay on LOX IMVI melanoma it was 0.746 µM; with MALME-3M melanoma, 0.076 µM; in the assay on MCF7 breast, 2.75 µM; in the assay with NCI-H226 lung it was 0.908 µM. Further, the GI50 in the assay on OVCAR-5 ovarian is 0.757 µM; with SF-539 CNS, 0.226 µM; with SK-MEL-2 melanoma it was 0.283 µM; with SR leukemia it was 0.0855 µM. Besides, the TGI was 0.487 µM in the assay with A498 renal; 46.1 µM in the assay with HOP-92 NSCLC; more than 59.8 µM in the assay with LOX IMVI melanoma; more than 91.8 µM in the assay on MALME-3M melanoma; more than 100 µM in the assay with MCF7 breast; more than 20.3 µM in the assay on NCI-H226 lung. Also, the TGI is more than 100 µM in the assay with OVCAR-5 ovarian, 0.693 µM with SF-539 CNS, more than 100 µM in the assay on SK-MEL-2 melanoma and more than 36.8 µM with SR leukemia.

For `COc1ccc2c3c1OC1C(OC)(OC)C=C[C@@]4(Br)[C@@H](C2)N(CC2CC2)CC[C@]314` (some centres undefined), the TGI was more than 100 µM in the assay on A498 renal; 83.9 µM with HOP-92 NSCLC; more than 100 µM in the assay with LOX IMVI melanoma; more than 100 µM in the assay on MALME-3M melanoma; more than 100 µM in the assay with MCF7 breast; more than 100 µM with NCI-H226 lung. Further, the TGI in the assay with OVCAR-5 ovarian, in the assay with SF-539 CNS, in the assay with SK-MEL-2 melanoma and with SR leukemia was more than 100 µM in each case.
